Structures are written as SMILES. Where “and” joins values, the source holds several entries; their conditions need not be identical. Identical values can stand only once. Inconclusive results and toxic doses are left out.

Consider 20 molecules from PubChem BioAssay AID248 (DTP/NCI, 2004).

In this assay the test system is L1210 leukemia ip in BDF1 mice, survival T/C. Briefly: NCI In Vivo Anticancer Drug Screen. Data for tumor model L1210 Leukemia (intraperitoneal) in B6D2F1 (BDF1) mice. Conditions: endpoint: mean survival time, higher = longer survival. The method in brief: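 Ratio derived from survival: compound-dosed mice over vehicle-dosed mice, all bearing a transplantable tumor.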

[1] abbreviates: dose: 100.0 mg/kg/injection, schedule: Q01DX001 (ip), vehicle: saline.
The mark [2] stands for this setting: dose: 200.0 mg/kg/injection, schedule: Q01DX001 (ip), vehicle: saline.
[3] abbreviates: dose: 400.0 mg/kg/injection, schedule: Q01DX001 (ip), vehicle: saline.
Setting [4] is: dose: 12.5 mg/kg/injection, schedule: Q04DX003 (ip), vehicle: saline.
Where [5] appears, read: dose: 25.0 mg/kg/injection, schedule: Q04DX003 (ip), vehicle: saline.
The mark [6] stands for this setting: dose: 50.0 mg/kg/injection, schedule: Q04DX003 (ip), vehicle: saline.
Setting [7] is: dose: 100.0 mg/kg/injection, schedule: Q04DX003 (ip), vehicle: saline with Tween-80.
[8] abbreviates: dose: 200.0 mg/kg/injection, schedule: Q04DX003 (ip), vehicle: saline with Tween-80.
Setting [9] is: dose: 100.0 mg/kg/injection, schedule: Q04DX003 (ip), vehicle: Klucel (hydroxypropylcellulose) (HPC).
[10] abbreviates: dose: 200.0 mg/kg/injection, schedule: Q04DX003 (ip), vehicle: Klucel (hydroxypropylcellulose) (HPC).
Where [11] appears, read: dose: 400.0 mg/kg/injection, schedule: Q04DX003 (ip), vehicle: Klucel (hydroxypropylcellulose) (HPC).

With `CCSC(C(O)C(O)C(O)CO)n1ccc(=O)[nH]c1=O` (configuration not stated), the T/C is, setting by setting: (dose: 100.0 mg/kg/injection, schedule: Q01DX005 (ip), vehicle: saline) 97 % of control; (dose: 200.0 mg/kg/injection, schedule: Q01DX005 (ip), vehicle: saline) 93 % of control.
For the molecule `CC(=O)C(C)C(C)(C)C` (configuration not stated), the T/C runs as follows: under setting [1], 106 % of control; under setting [2], 92 % of control; under setting [3], 97 % of control.
Take `CC(C)(C)c1ccc(N)cc1`: the T/C was 106 % of control under setting [4], 95 % of control under setting [5] and 98 % of control under setting [6].
Take `CC(CN=Cc1ccccc1[O-])N=Cc1ccccc1[O-].[O]=[V]` (configuration not stated): the T/C (dose: 5.0 mg/kg/injection, schedule: Q01DX009 (ip), vehicle: saline with Tween-80) was 94 % of control; the T/C (dose: 10.0 mg/kg/injection, schedule: Q01DX009 (ip), vehicle: saline with Tween-80) is 91 % of control; the T/C (dose: 20.0 mg/kg/injection, schedule: Q01DX009 (ip), vehicle: saline with Tween-80) is 97 % of control.
`C=CCNCCN1CCN(CCCN2c3ccccc3Sc3ccc(C(F)(F)F)cc32)CC1`: the T/C reads like this: (dose: 6.25 mg/kg/injection, schedule: Q04DX003 (ip), vehicle: saline) 106 % of control; (dose: 12.5 mg/kg/injection, schedule: Q01DX009 (ip), vehicle: saline) 103 % of control; under setting [4], 98 % of control; (dose: 25.0 mg/kg/injection, schedule: Q01DX009 (ip), vehicle: saline) 102 % of control; under setting [5], 102 % of control; under setting [6], 96 % of control.
Consider `CCOc1ccc(OCC)cc1`, for which the T/C is 101 % of control under setting [7]; 101 % of control under setting [8]; 94 % of control (dose: 400.0 mg/kg/injection, schedule: Q04DX003 (ip), vehicle: saline with Tween-80).
`S=c1cccn[nH]1`: the T/C was 459 % of control (dose: 12.5 mg/kg/injection, schedule: Q01DX009 (ip), vehicle: other); 459 % of control (dose: 25.0 mg/kg/injection, schedule: Q01DX009 (ip), vehicle: other); 406 % of control (dose: 50.0 mg/kg/injection, schedule: Q01DX009 (ip), vehicle: other); 93 % of control and 101 % of control (dose: 59.0 mg/kg/injection, schedule: Q01DX009 (ip), vehicle: other); 96 % of control and 99 % of control (dose: 89.0 mg/kg/injection, schedule: Q01DX009 (ip), vehicle: other); 341 % of control (dose: 100.0 mg/kg/injection, schedule: Q01DX009 (ip), vehicle: other). Moreover, the T/C is, setting by setting: (dose: 133.0 mg/kg/injection, schedule: Q01DX009 (ip), vehicle: other) 94 % of control and 100 % of control; (dose: 300.0 mg/kg/injection, schedule: Q01DX009 (ip), vehicle: other) 96 % of control and 90 % of control.
`Nc1ccc([N+](=O)[O-])c(-c2ccccc2)c1[N+](=O)[O-]`: the T/C (dose: 100.0 mg/kg/injection, schedule: Q01DX001 (ip), vehicle: carboxymethylcellulose (CMC)) is 91 % of control; the T/C (dose: 200.0 mg/kg/injection, schedule: Q01DX001 (ip), vehicle: carboxymethylcellulose (CMC)) was 91 % of control; the T/C (dose: 400.0 mg/kg/injection, schedule: Q01DX001 (ip), vehicle: carboxymethylcellulose (CMC)) is 91 % of control.
Consider `O=C(Nc1ccc2c(c1)OCO2)O/N=C1\C(=O)Nc2ccccc21`, for which the T/C was 103 % of control (dose: 50.0 mg/kg/injection, schedule: Q01DX009 (ip), vehicle: saline) and 100 % of control (dose: 100.0 mg/kg/injection, schedule: Q01DX009 (ip), vehicle: saline).
Take `OCC1CC2CCC1CC2` (configuration not stated): the T/C (dose: 50.0 mg/kg/injection, schedule: Q01DX009 (ip), vehicle: saline with Tween-80) is 100 % of control; the T/C (dose: 100.0 mg/kg/injection, schedule: Q01DX009 (ip), vehicle: saline with Tween-80) is 105 % of control; the T/C (dose: 200.0 mg/kg/injection, schedule: Q01DX009 (ip), vehicle: saline with Tween-80) was 108 % of control.
For the molecule `Cc1nc(N)[nH]c(=O)c1CC(C)O` (configuration not stated), the T/C is 92 % of control (dose: 100.0 mg/kg/injection, schedule: Q04DX003 (ip), vehicle: saline); 100 % of control (dose: 200.0 mg/kg/injection, schedule: Q04DX003 (ip), vehicle: saline); 92 % of control (dose: 400.0 mg/kg/injection, schedule: Q04DX003 (ip), vehicle: saline).
With `NP(=S)(Oc1ccc(Cl)cc1)Oc1ccc(Cl)cc1`, the T/C (dose: 6.25 mg/kg/injection, schedule: Q01DX009 (ip), vehicle: gum acacia) is 103 % of control; the T/C (dose: 12.5 mg/kg/injection, schedule: Q01DX009 (ip), vehicle: gum acacia) was 110 % of control; the T/C (dose: 12.5 mg/kg/injection, schedule: Q04DX002 (ip), vehicle: gum acacia) is 87 % of control; the T/C (dose: 25.0 mg/kg/injection, schedule: Q01DX009 (ip), vehicle: gum acacia) was 100 % of control; the T/C (dose: 25.0 mg/kg/injection, schedule: Q04DX002 (ip), vehicle: gum acacia) was 87 % of control; the T/C (dose: 100.0 mg/kg/injection, schedule: Q04DX002 (ip), vehicle: saline) was 93 % of control. For the same molecule, the T/C (dose: 200.0 mg/kg/injection, schedule: Q04DX002 (ip), vehicle: saline) was 101 % of control and the T/C (dose: 400.0 mg/kg/injection, schedule: Q04DX002 (ip), vehicle: saline) is 96 % of control.
For the molecule `COc1cccc(C(=O)c2cc(O)c3c(c2O)CC(C(C)=O)CC3=O)c1C#N` (configuration not stated), the T/C was 100 % of control (dose: 50.0 mg/kg/injection, schedule: Q01DX001 (ip), vehicle: saline with Tween-80); 94 % of control (dose: 100.0 mg/kg/injection, schedule: Q01DX001 (ip), vehicle: saline with Tween-80); 98 % of control (dose: 200.0 mg/kg/injection, schedule: Q01DX001 (ip), vehicle: saline with Tween-80).
Consider `CC(=O)NC1CCC(=O)C=C1c1ccccc1` (configuration not stated), for which the T/C runs as follows: under setting [1], 96 % of control; under setting [2], 107 % of control; under setting [3], 94 % of control.
In the case of `O=c1[nH]nc(SCc2ccccc2)c(=S)[nH]1`, the T/C is, setting by setting: (dose: 100.0 mg/kg/injection, schedule: Q01DX001 (ip), vehicle: other) 119 % of control; (dose: 177.0 mg/kg/injection, schedule: Q01DX001 (ip), vehicle: other) 104 % of control; (dose: 200.0 mg/kg/injection, schedule: Q01DX001 (ip), vehicle: other) 156 % of control; (dose: 200.0 mg/kg/injection, schedule: Q01DX005 (ip), vehicle: other) 92 % of control; (dose: 266.0 mg/kg/injection, schedule: Q01DX001 (ip), vehicle: other) 101 % of control; (dose: 300.0 mg/kg/injection, schedule: Q01DX005 (ip), vehicle: other) 95 % of control.
Consider `O=C1NN=C(c2ccccc2)CC1c1ccccc1` (configuration not stated), for which the T/C runs as follows: (dose: 100.0 mg/kg/injection, schedule: Q01DX001 (ip), vehicle: Klucel (hydroxypropylcellulose) (HPC)) 100 % of control; under setting [9], 101 % of control; (dose: 200.0 mg/kg/injection, schedule: Q01DX001 (ip), vehicle: Klucel (hydroxypropylcellulose) (HPC)) 97 % of control; under setting [10], 96 % of control; (dose: 400.0 mg/kg/injection, schedule: Q01DX001 (ip), vehicle: Klucel (hydroxypropylcellulose) (HPC)) 100 % of control; under setting [11], 93 % of control.
Regarding `ClC(Cl)c1nc2ccccc2[nH]1`, the T/C (dose: 25.0 mg/kg/injection, schedule: Q01DX001 (ip), vehicle: Klucel (hydroxypropylcellulose) (HPC)) is 94 % of control and the T/C under setting [6] was 97 % of control.
Turning to `Cc1cnc2c(N)[nH]nc2n1`, the T/C runs as follows: under setting [9], 106 % of control; (dose: 200.0 mg/kg/injection, schedule: Q01DX009 (ip), vehicle: Klucel (hydroxypropylcellulose) (HPC)) 104 % of control; under setting [10], 96 % of control; (dose: 400.0 mg/kg/injection, schedule: Q01DX009 (ip), vehicle: Klucel (hydroxypropylcellulose) (HPC)) 100 % of control; under setting [11], 102 % of control.
In the case of `Brc1ccc(SCN(CSc2ccc(Br)cc2)Cc2ccccc2)cc1`, the T/C by setting is: under setting [1], 93 % of control; under setting [2], 87 % of control; under setting [3], 93 % of control.
On to `CCC(C)C(C(=O)OCCN(C)C)c1ccccc1` (configuration not stated), for which the T/C reads like this: under setting [7], 98 % of control; under setting [8], 92 % of control.
